In patent US10576085B2, “Substituted aminopurine compounds, compositions thereof, and methods of treatment therewith” (Signal Pharmaceuticals, LLC, priority 2016, dated 2020):

Tested on: cancer cell lines of Table 2
Assay: Multiplexed cytotoxicity assay: cell proliferation (relative cell count IC50, GI50)
Format: cell-based
Description: Cells are grown in RPMI1640, 10% FBS, 2 mM L-alanyl-L-Glutamine, 1 mM Na pyruvate or a special medium in a humidified atmosphere of 5% CO2 at 37° C. Cells are seeded into 384-well plates and incubated in a humidified atmosphere of 5% CO2 at 37° C. Compounds are added 24 h post cell seeding. At the same time, a time zero untreated cell plate is generated. After a 72 hour incubation period, cells are fixed and stained with fluorescently labeled antibodies and nuclear dye to allow visualization of nuclei, apoptotic cells and mitotic cells. Apoptotic cells are detected using an anti-active caspase-3 antibody. Mitotic cells are detected using an anti phospho-histone-3 antibody. Compounds are serially diluted 3.16-fold and assayed over 10 concentrations in a final assay concentration of 0.1% DMSO from the highest test concentration of 10 μM. Automated fluorescence microscopy was carried out using a Molecular Devices ImageXpress Micro XL high-content imager, and images are collected with a 4× objective.
Sixteen-bit TIFF images are acquired and analyzed with MetaXpress 5.1.0.41 software. Cell proliferation is measured by the signal intensity of the incorporated nuclear dye. The cell proliferation assay output is referred to as the relative cell count. To determine the cell proliferation end point, the cell proliferation data output is transformed to percentage of control (POC) using the following formula: POC=relative cell count(compound wells)/relative cell count(vehicle wells)×100
GI50 is the concentration needed to reduce the observed growth by half. This is the concentration that inhibits the growth to the level midway between growth in untreated cells and the number of cells seeded in the well (Time zero value). The IC50 values are calculated using nonlinear regression to fit data to a sigmoidal 4 point, 4 parameter One-Site dose response model, where: y(fit)=A+[(B−A)/(1+((C/x)^D))].
In Another Experiment, Cells were Grown in RPMI1640, 10% FBS, 2 mM L-alanyl-L-Glutamine, 1 mM Na pyruvate or a special medium in a humidified atmosphere of 5% CO2 at 37° C. Cells were seeded into 384-well plates and incubated in a humidified atmosphere of 5% CO2 at 37° C. Compounds were added 24 h post cell seeding. At the same time, a time zero untreated cell plate was generated. After a 72 hour incubation period, cells were fixed and stained with fluorescently labeled antibodies and nuclear dye to allow visualization of nuclei, apoptotic cells and mitotic cells. Apoptotic cells were detected using an anti-active caspase-3 antibody. Mitotic cells were detected using an anti phospho-histone-3 antibody. Compounds were serially diluted 3.16-fold and assayed over 10 concentrations in a final assay concentration of 0.1% DMSO from the highest test concentration of 10 μM. Automated fluorescence microscopy was carried out using a Molecular Devices ImageXpress Micro XL high-content imager, and images were collected with a 4× objective.
Sixteen-bit TIFF images were acquired and analyzed with MetaXpress 5.1.0.41 software. Cell proliferation was measured by the signal intensity of the incorporated nuclear dye. The cell proliferation assay output was referred to as the relative cell count. To determine the cell proliferation end point, the cell proliferation data output was transformed to percentage of control (POC) using the following formula: POC=relative cell count(compound wells)/relative cell count(vehicle wells)×100
GI50 refers to the concentration needed to reduce the observed growth by half. This corresponds to the concentration that inhibits the growth to the level midway between growth in untreated cells and the number of cells seeded in the well (Time zero value). The IC50 values were calculated using nonlinear regression to fit data to a sigmoidal 4 point, 4 parameter One-Site dose response model, where: y(fit)=A+[(B−A)/(1+((C/x)^D))].

[1] = Homo sapiens, A204, A204, Soft Tissue, Sarcoma
[2] = Homo sapiens, A704, A704, Kidney
[3] = Homo sapiens, ARH-77, ARH77, Myeloma
[4] = Homo sapiens, BT-474, BT474, Breast
[5] = Homo sapiens, BT-549, BT549, Breast
[6] = Homo sapiens, C-4-II, C4II, Female GU, Cervix
[7] = Homo sapiens, CCF-STTG1, CCFSTTG1, CNS, Glioma
[8] = Homo sapiens, CFPAC-1, CFPAC1, Pancreas
[9] = Homo sapiens, ChaGo-K-1, CHAGOK1, Lung, NSCLC
[10] = Homo sapiens, K562, K562, Leukemia
[11] = Homo sapiens, ME-180, ME180, Female GU, Ovary
[12] = Homo sapiens, NALM-6, NALM6, Leukemia
[13] = Homo sapiens, NCI-H295R, NCIH295R, Endocrine, Adrenal gland
[14] = Homo sapiens, NCI-H460, NCIH460, Lung, NSCLC
[15] = Homo sapiens, OVCAR-3, OVCAR3, Female GU, Ovary
[16] = Homo sapiens, SK-NEP-1, SKNEP1, Kidney
[17] = Homo sapiens, SK-UT-1, SKUT1, Soft Tissue, Sarcoma
[18] = Homo sapiens, SNU-16, SNU16, Stomach
[19] = Homo sapiens, SiHa, Female GU, Cervix
[20] = Homo sapiens, T98G, CNS, Glioma
[21] = KHOS-240S, KHOS240S, Soft Tissue, Osteosarcoma

C[C@]1(C(N)=O)CC[C@@H](n2c(Nc3c(Cl)cc(Cl)cc3Cl)nc3cnc(N[C@@H]4CCOC[C@H]4F)nc32)CC1 [Compound 1, cis-4-[2-{[(3S,4R)-3-fluorooxan-4-yl]amino}-8-(2,4,6-trichloroanilino)-9H-purin-9-yl]-1-methyl cyclohexane-1-carboxamide]
GI50 (BC1, Lymphoma): 10 µM | IC50 (BC1, Lymphoma): 10 µM | GI50 (C4I, Female GU, Cervix): 10 µM | IC50 (C4I, Female GU, Cervix): 10 µM | GI50 (CEM/C1, CEMC1, Leukemia): 10 µM | IC50 (CEM/C1, CEMC1, Leukemia): 10 µM | IC50 (CML-T1, CMLT1, Leukemia): 10 µM | IC50 (DB, Lymphoma): 10 µM | IC50 (HS229T, Lung, NSCLC): 10 µM | IC50 (HS688AT, Skin, Melanoma): 10 µM | IC50 (HS729, Soft Tissue, Sarcoma): 10 µM | IC50 (HS821T, Soft Tissue, Sarcoma): 10 µM | IC50 (HS888SK, Soft Tissue, Osteosarcoma): 10 µM | GI50 (HS895T, Skin, Melanoma): 10 µM | IC50 (HS895T, Skin, Melanoma): 10 µM | IC50 (HS934T, Skin, Melanoma): 10 µM | IC50 (HT, Lymphoma): 10 µM | GI50 [1]: 10 µM | IC50 [1]: 10 µM | IC50 (Homo sapiens, A253, A253, Head and Neck): 10 µM | GI50 [2]: 10 µM | IC50 [2]: 10 µM | GI50 [3]: 10 µM | IC50 [3]: 10 µM | IC50 (Homo sapiens, ASPC1, ASPC1, Pancreas): 10 µM | IC50 (Homo sapiens, BT-20, BT20, Breast): 10 µM | GI50 [4]: 10 µM | IC50 [4]: 10 µM | GI50 [5]: 10 µM | IC50 [5]: 10 µM | IC50 (Homo sapiens, BV-173, BV173, Leukemia): 10 µM | GI50 [6]: 10 µM | IC50 [6]: 10 µM | IC50 (Homo sapiens, CAPAN-1, CAPAN1, Pancreas): 10 µM | GI50 [7]: 10 µM | IC50 [7]: 10 µM | GI50 [8]: 10 µM | IC50 [8]: 10 µM | IC50 (Homo sapiens, COLO 320DM, COLO320DM, Colon): 10 µM | IC50 (Homo sapiens, Ca-Ski, CASKI, Female GU, Ovary): 10 µM | IC50 (Homo sapiens, Caov-3, CAOV3, Female GU, Ovary): 10 µM | GI50 [9]: 10 µM | IC50 [9]: 10 µM | IC50 (Homo sapiens, DMS-53, DMS53, Lung, SCLC): 10 µM | IC50 (Homo sapiens, Daudi, Lymphoma): 10 µM | IC50 (Homo sapiens, Detroit 562, DETROIT562, Head and Neck): 10 µM | IC50 (Homo sapiens, EFM-19, EFM19, Breast): 10 µM | IC50 (Homo sapiens, HT1197, HT1197, Bladder): 10 µM | GI50 [10]: 10 µM | IC50 [10]: 10 µM | IC50 (Homo sapiens, MDA-MB-415, MDAMB415, Breast): 10 µM | IC50 (Homo sapiens, MDA-MB-436, MDAMB436, Breast): 10 µM | GI50 [11]: 10 µM | IC50 [11]: 10 µM | GI50 [12]: 10 µM | IC50 [12]: 10 µM | IC50 (Homo sapiens, NCI-H69, NCIH69, Lung, SCLC): 10 µM | GI50 [13]: 10 µM | IC50 [13]: 10 µM | IC50 (Homo sapiens, NCI-H446, NCIH446, Lung, SCLC): 10 µM | GI50 [14]: 10 µM | IC50 [14]: 10 µM | IC50 (Homo sapiens, NCI-H596, NCIH596, Lung, NSCLC): 10 µM | IC50 (Homo sapiens, OE19, OE19, Head and Neck, Esophageal): 10 µM | GI50 [15]: 10 µM | IC50 [15]: 10 µM | IC50 (Homo sapiens, PFSK-1, PFSK1, CNS, Glioma): 10 µM | IC50 (Homo sapiens, Raji, Lymphoma): 10 µM | IC50 (Homo sapiens, SK-N-DZ, SKNDZ, CNS, Neuroblastoma): 10 µM | GI50 [16]: 10 µM | IC50 [16]: 10 µM | IC50 (Homo sapiens, SK-OV-3, SKOV3, Female GU, Ovary): 10 µM | GI50 [17]: 10 µM | IC50 [17]: 10 µM | GI50 [18]: 10 µM | IC50 [18]: 10 µM | GI50 [19]: 10 µM | IC50 [19]: 10 µM | GI50 (Homo sapiens, T47D, Breast): 10 µM | IC50 (Homo sapiens, T47D, Breast): 10 µM | GI50 [20]: 10 µM | IC50 [20]: 10 µM | IC50 (Homo sapiens, U138-MG, U138MG, CNS, Glioma): 10 µM | IC50 (Homo sapiens, U-118-MG, U118MG, CNS, Glioma): 10 µM | GI50 (J82, Bladder): 10 µM | IC50 (J82, Bladder): 10 µM | GI50 [21]: 10 µM | IC50 [21]: 10 µM | GI50 (KLE, Female GU, Uterus): 10 µM | IC50 (KLE, Female GU, Uterus): 10 µM | GI50 (KPL-1, KPL1, Breast): 10 µM | IC50 (KPL-1, KPL1, Breast): 10 µM | IC50 (SKPNDW, Stomach): 10 µM | IC50 (TE125T, Soft Tissue, Sarcoma): 10 µM | IC50 (TT, Endocrine, Thyroid): 10 µM | GI50 (Y79, Eye-retinoblastoma): 10 µM | IC50 (Y79, Eye-retinoblastoma): 10 µM | Anti-proliferative activity (variety of cancer cell lines (Table 3)): anti-proliferative activity
